Measurements reported in patent US11046745B2, “Peptide mimotopes of the CD3 T-cell co-receptor epsilon chain and uses thereof” (BioNTech SE, priority 2015, dated 2021).
Positions of bridges follow the written chain, without caps; N, C: chain ends. Residues, ends and D or L forms follow the SMILES beside them. No end group written: not given here. *: point of attachment. Biotin = O=C1N[C@H]2[C@H](CS[C@H]2CCCCC(=O)*)N1

Tests used:
[1] = test system: TR66 antibody (CD3ε specific antibody, clone TR66); assay: Binding analysis using biolayer interferometry (BLI), Octet Red, biotinylated peptides on streptavidin sensors; conditions: for Yes/no binding, BLI: 500 nM TR66 antibody, one concentration; for Binding of TR66 in detailed BLI analysis (FIG. 5): TR66 1.5625 to 100 nM, dissociation constant could not be fitted
Method: FIG. 5. Comparative binding analysis of matured TR66 mimotopes aCD3-04-002 and aCD3-04-013 using biolayer interferometry (BLI) on an Octet Red system (fortéBIO). Biotinylated peptides were immobilized onto streptavidin (SA) sensors. After blocking with 1× blocking buffer and biocytin association and dissociaten rates of TR66 binding were recorded over a period of 2400 sec respectively. The antibody was used in a range of 1.5625 to 100 nM (1.5625, 3.125, 6.25, 12.5, 25, 50, 100 nM) for each analyzed peptide.
Binding analysis was performed using streptavidin (SA) sensors on an Octet Red system (fortéBIO). 5 μg/ml of biotinylated peptides were used for loading (200 μl per sensor). […] Remained biotin binding sites on coated streptavidin sensors were blocked using 100 μg/ml biocytin (Sigma-Aldrich) for 5 minutes. For binding mode analysis of different peptides 500 nM TR66 antibody was used in the association step. For detailed analysis the antibody was used in a range of 1.5625 to 100 nM (1.5625, 3.125, 6.25, 12.5, 25, 50, 100 nM) for each analyzed peptide. The following program was used: • Baseline: 1000 rpm for 180 sec. • Load: 1000 rpm for 900 sec. • Baseline: 1000 rpm for 180 sec. • Blocking: 1000 rpm for 300 sec. • Association: 1000 rpm for 1200-2400 sec. • Dissociation: 1000 rpm for 1200-2400 sec.
The peptides displaying the highest binding affinities from the peptide microarray experiments were synthesized by standard Fmoc-based solid-phase-synthesis protocols and purified (HPLC purity: >80%). The binding characteristics of each peptide were determined. In the first instance all peptides were analysed via biolayer interferometry (BLI) to get a first impression whether the respective variant has a significant binding property at all (yes/no binding, Table 2). At his point, only one TR66 concentration (500 nM) was tested. Except variants aCD3-04-010 and aCD3-04-012 all peptides show a measurable binding activity.

[2] = target: TR66 antibody (CD3ε specific antibody, clone TR66); assay: Binding analysis using peptide ELISA, biotinylated peptides on streptavidin plates, TR66; conditions: TR66; mean of at least two individual measurements; two-site saturation binding model; read-out: Apparent KD, ELISA
Method: FIG. 3. Binding analysis of phage derived variants using a peptide based ELISA. Biotinylated peptides were immobilized on streptavidin plates (Nunc) in a concentration of 0.75 μg/ml. After blocking 30 μg/ml TR66 or an unrelated antibody (control ab) were added and incubated for 1 h at 37° C. Binding was detected with an alkaline phosphatase conjugated goat anti-human IgG antibody (Sigma) and the chromogenic substrate PNPP (para-nitrophenyl phosphate). All reactions were performed as duplicates. SD values are presented as error bars.
For the detection of TR66 or OKT3 (Bio-X-Cell), the CD3 mimicking peptides were immobilized on streptavidin plates (Nunc) in a concentration of 0.75 μg/ml in PBS buffer for 1 hour at 37° C. Subsequently, the plate was washed three times with washing buffer (0.01% Tween-20 in PBS buffer) before it was blocked with 3% BSA in PBS overnight at 4° C. To detect TR66 or OKT3, the blocked plate was washed again three times with washing buffer followed by the addition of TR66 or OKT3 and incubation for 30 min at 37° C. After another washing step, it was incubated with an alkaline phosphatase conjugated Goat anti-human or anti-mouse IgG, Fe antibody (Jackson Immuno Research) for additional 30 min at 37° C. Finally, the plate was washed again before being incubated with 1.5 mg/ml of the substrate PNPP (para-nitrophenyl phosphate) in appropriate substrate buffer (1 M Diethanolamine, 0.05 mM MgCl2, 0.01% sodium azide, pH 9.8) for 30 min at RT in the dark. 3 M KOH was used to stop the enzymatic reaction. Absorbance was measured with a microplate reader (Infinite M200, Tecan). For dual wavelength analysis, 405 nm was chosen as measurement wavelength and 492 nm as reference wavelength. Absorbance values were calculated by subtraction of the measured values for the reference wavelength and for the measurement wavelength. Calculation of apparent KD values was done by fitting the data with Sigma Plot 10 using a two-site saturation binding model.

[3] = test system: Muromonab-CD3 (Orthoclone OKT3), CD3-specific monoclonal antibody; assay: Peptide ELISA for cross-reactivity to OKT3; type: binding, murine
Method: FIG. 6. Comparative binding analysis of maturated TR66 mimotope aCD3-04-013 to approved antibody Muromanab-CD3 (Orthoclone OKT3®). Biotinylated peptides were immobilized on streptavidin plates (Nunc). After blocking different concentrations (0, 156, 312, 625, 1250, 5000 and 10000 ng/ml) of TR66, OKT3 or an unrelated antibody (control ab) were added and incubated for 1 h at 37° C. Binding was detected with an alkaline phosphatase conjugated goat anti-human IgG antibody (Sigma) and the chromogenic substrate PNPP (para-nitrophenyl phosphate). All reactions were performed as duplicates. SD values are presented as error bars.
For the detection of TR66 or OKT3 (Bio-X-Cell), the CD3 mimicking peptides were immobilized on streptavidin plates (Nunc) in a concentration of 0.75 μg/ml in PBS buffer for 1 hour at 37° C. Subsequently, the plate was washed three times with washing buffer (0.01% Tween-20 in PBS buffer) before it was blocked with 3% BSA in PBS overnight at 4° C. To detect TR66 or OKT3, the blocked plate was washed again three times with washing buffer followed by the addition of TR66 or OKT3 and incubation for 30 min at 37° C. […] Absorbance was measured with a microplate reader (Infinite M200, Tecan). […] Absorbance values were calculated by subtraction of the measured values for the reference wavelength and for the measurement wavelength. […]

Molecule	Yes/no binding, BLI [1]	Kd [2] [nM]	Binding of TR66 in detailed BLI analysis (FIG. 5) [1]	Binding of OKT3 to mimotope, ELISA titration (FIG. 6) ([3]; OKT3 titration 0-10000 ng/ml)	Affinity of OKT3 binding compared to TR66 binding, ELISA ([3]; different detection antibodies for TR66 and OKT3)
ACTRPWDPQC-GGGS-K(Bio) (ACTRPWDPQCGGGSK(Biotin); disulfide 2-10 (inferred)) [aCD3-04-012]	No	–	–	–	–
C[C@H](N)C(=O)N[C@H]1CSSC[C@@H](C(=O)NCC(=O)NCC(=O)NCC(=O)N[C@@H](CO)C(=O)N[C@@H](CCCCNC(=O)CCCC[C@@H]2SC[C@@H]3NC(=O)N[C@@H]32)C(=O)O)NC(=O)[C@H](Cc2c[nH]c3ccccc23)NC(=O)[C@@H]2CCCN2C(=O)[C@H](CC(=O)O)NC(=O)[C@H](CC(=O)O)NC(=O)[C@@H]2CCCN2C(=O)[C@H](CCCNC(=N)N)NC(=O)[C@H]([C@@H](C)O)NC1=O [aCD3-04-014, ACTRPDDPWC-GGGS-K(Bio)] (H-ACTRPDDPWCGGGSK(Biotin)-OH; disulfide 2-10)	Yes	111	–	–	–
C[C@@H](O)[C@@H]1NC(=O)[C@@H](NC(=O)[C@@H](N)Cc2c[nH]c3ccccc23)CSSC[C@@H](C(=O)NCC(=O)NCC(=O)NCC(=O)N[C@@H](CO)C(=O)N[C@@H](CCCCNC(=O)CCCC[C@@H]2SC[C@@H]3NC(=O)N[C@@H]32)C(=O)O)NC(=O)[C@H](CCC(N)=O)NC(=O)[C@@H]2CCCN2C(=O)[C@H](CC(=O)O)NC(=O)CNC(=O)[C@@H]2CCCN2C(=O)[C@H](CCCNC(=N)N)NC1=O [aCD3-04-006, WCTRPGDPQC-GGGS-K(Bio)] (H-WCTRPGDPQCGGGSK(Biotin)-OH; disulfide 2-10)	Yes	226	–	–	–
C[C@H](N)C(=O)N[C@H]1CSSC[C@@H](C(=O)NCC(=O)NCC(=O)NCC(=O)N[C@@H](CO)C(=O)N[C@@H](CCCCNC(=O)CCCC[C@@H]2SC[C@@H]3NC(=O)N[C@@H]32)C(=O)O)NC(=O)[C@H](CCC(=O)O)NC(=O)[C@@H]2CCCN2C(=O)[C@H](CC(=O)O)NC(=O)[C@H](CC(=O)O)NC(=O)[C@@H]2CCCN2C(=O)[C@H](CCCNC(=N)N)NC(=O)[C@H]([C@@H](C)O)NC1=O [aCD3-04-013, ACTRPDDPEC-GGGS-K(Bio)] (H-ACTRPDDPECGGGSK(Biotin)-OH; disulfide 2-10)	Yes	4	concentration-dependent binding	specific binding	slightly lower affinity
C[C@H](N)C(=O)N[C@H]1CSSC[C@@H](C(=O)NCC(=O)NCC(=O)NCC(=O)N[C@@H](CO)C(=O)N[C@@H](CCCCNC(=O)CCCC[C@@H]2SC[C@@H]3NC(=O)N[C@@H]32)C(=O)O)NC(=O)[C@H](Cc2ccc(O)cc2)NC(=O)[C@@H]2CCCN2C(=O)[C@H](CC(=O)O)NC(=O)CNC(=O)[C@@H]2CCCN2C(=O)[C@H](CCCNC(=N)N)NC(=O)[C@H]([C@@H](C)O)NC1=O [aCD3-04-009, ACTRPGDPYC-GGGS-K(Bio)] (H-ACTRPGDPYCGGGSK(Biotin)-OH; disulfide 2-10)	Yes	167	–	–	–
C[C@H](N)C(=O)N[C@H]1CSSC[C@@H](C(=O)NCC(=O)NCC(=O)NCC(=O)N[C@@H](CO)C(=O)N[C@@H](CCCCNC(=O)CCCC[C@@H]2SC[C@@H]3NC(=O)N[C@@H]32)C(=O)O)NC(=O)[C@H](CCC(N)=O)NC(=O)[C@@H]2CCCN2C(=O)[C@H](CC(=O)O)NC(=O)[C@H](CCC(=O)O)NC(=O)[C@@H]2CCCN2C(=O)[C@H](CCCNC(=N)N)NC(=O)[C@H]([C@@H](C)O)NC1=O [aCD3-04-007, ACTRPEDPQC-GGGS-K(Bio)] (H-ACTRPEDPQCGGGSK(Biotin)-OH; disulfide 2-10)	Yes	299	–	–	–
C[C@H](N)C(=O)N[C@H]1CSSC[C@@H](C(=O)NCC(=O)NCC(=O)NCC(=O)N[C@@H](CO)C(=O)N[C@@H](CCCCNC(=O)CCCC[C@@H]2SC[C@@H]3NC(=O)N[C@@H]32)C(=O)O)NC(=O)[C@H](C)NC(=O)[C@@H]2CCCN2C(=O)[C@H](CC(=O)O)NC(=O)CNC(=O)[C@@H]2CCCN2C(=O)[C@H](CCCNC(=N)N)NC(=O)[C@H]([C@@H](C)O)NC1=O [aCD3-04-008, ACTRPGDPAC-GGGS-K(Bio)] (H-ACTRPGDPACGGGSK(Biotin)-OH; disulfide 2-10)	Yes	164	–	–	–
C[C@H](N)C(=O)N[C@H]1CSSC[C@@H](C(=O)NCC(=O)NCC(=O)NCC(=O)N[C@@H](CO)C(=O)N[C@@H](CCCCNC(=O)CCCC[C@@H]2SC[C@@H]3NC(=O)N[C@@H]32)C(=O)O)NC(=O)[C@H](CCC(N)=O)NC(=O)[C@@H]2CCCN2C(=O)[C@H](CC(=O)O)NC(=O)[C@H](CC(=O)O)NC(=O)[C@@H]2CCCN2C(=O)[C@H](CCCNC(=N)N)NC(=O)[C@H]([C@@H](C)O)NC1=O [aCD3-04-002, ACTRPDDPQC-GGGS-K(Bio)] (H-ACTRPDDPQCGGGSK(Biotin)-OH; disulfide 2-10)	Yes	78	concentration-dependent binding	–	–
ACTR(NMI)GDPQC-GGGS-K(Bio) (ACTRLGDPQCGGGSK; not fully specified; N-methylisoleucine; GGGS linker; biotinylated lysine; MOD_RES (5)..(5) N-methylisoleucine; MOD_RES (15)..(15) K(Bio)) [aCD3-04-010]	No	–	–	–	–
